Here are results for 2 substances from patent US10905761B2, “Use of a lipopeptide or lipoprotein as an adjuvant in therapeutic or prophylactic vaccinations” (HELMHOLTZ-ZENTRUM FUER INFEKTIONSFORSCHUNG GMBH, priority 2002, dated 2021).

Assay type in all cases: in vivo
Test [1] deals with BALB/c (H-2d) mice. Kind of test: Kinetics of β-gal-specific IgG responses in sera of mice immunized i.n. or i.p. (Example 4). The following applies: pure β-galactosidase 50 μg/dose i.n.; after a second boost. The protocol: Groups of animals (n=5) were immunized either i.n. (A) or i.p. (B) with 50 μg of β-gal ( ), β-gal plus 10 μg of CTB ( ), β-gal plus 0.5 μg of MALP-2 ( ) or pure buffer solution ( ). The days of the immunizations (day 0, 14 and 21) are marked by arrows. The results are shown as the reciprocal log2 of the geometric endpoint titer, and the SEM […] is indicated by means of vertical lines.
Six- to eight-week old female BALB/c (H-2d) mice were purchased from Harlan Winkelmann GmbH (Borchen, Germany) and treated in accordance with local and EU directives. Groups each of 5 mice were immunized on day 1, 14 and 21 either with 40 μg of pure β-galactosidase (Boehringer, Mannheim, Germany) with admixture of 0.5 μg of synthetic MALP-2 or 10 μg of cholera toxin B subunit (CTB; ICN Biomedicals Inc., Ohio) as standard adjuvant. For intranasal administration (i.n.), 10 μl were administered into each nostril, while for the i.p. injection β-galactosidase was resuspended with or without MALP-2 in 400, 100 or 100 μl of PBS. Serum samples were taken at various times (day 0, 13, 20 and 30) and stored at −20° C. until the β-galactosidase-specific antibodies were determined. Nunc-Immuno MaxiSorp assay plates with 96 wells (Nunc, Roskilde, Denmark) were coated with 100 μl of β-gal (Boehringer, Mannheim, Germany) with 5 μg/ml in 0.05 M […] (pH 8.2) per well. Serial two-fold dilutions of the sera or lavages in PBS with 1% BSA and 0.05% Tween-20 were added (100 μl/well) and the plates were incubated at 37° C. for 24 hours. After rinsing, biotinylated γ chain-specific goat anti-mouse IgG (Sigma Chemie, Deisenhofen, Germany) was added, and the plates were incubated at 37° C. for a further hour. After rinsing four times, 100 μl of peroxidase-conjugated streptavidin (Pharmingen) were added to the […], and the plates were incubated at 37° C. for 30 minutes. After rinsing four times, the reactions were developed by means of ABTS in 0.1 M citrate-phosphate buffer (pH 4.35) which contained 0.01% H2O2.

For test [2], the system named is BALB/c (H-2d) mice. Kind of test: β-Galactosidase-specific IgA in lung and vaginal lavages of mice immunized i.n. (Example 5). The following applies: i.n. immunization; day 31. The protocol:
The results are shown as percentage of β-galactosidase-specific IgA in relation to the total IgA present. The SEM is indicated by vertical lines.
The mice were sacrificed on day 31, and the final samples were taken. Vaginal and lung lavages were obtained by rinsing the organs with 1 ml of PBS supplemented by 50 mM EDTA, 0.1% BSA and 10 mM PMSF. The lavages were then centrifuged in order to remove tissue detritus (10 min at 3000×g) and the remaining liquid was stored at −20° C. In order to determine the total IgA concentration in the rinsings from lung and vagina, serial dilutions of the corresponding samples were incubated in microtiter plates, these plates having previously been coated with goat anti-mouse IgA (Sigma Chemie) as capture antibody (100 μl/well). Serial dilutions of purified mouse IgA (Sigma Chemie) were used to produce a standard plot.

For test [3], the system named is BALB/c (H-2d) mice. Kind of test: β-Galactosidase-specific T-cell proliferation of spleen and regional lymph node cells of immunized mice (Example 7). Particulars: day 31. Here is the method:
The cells were restimulated in vitro with various concentrations of soluble β-galactosidase for four days. The results are shown as average cpm subtracted from the background values for unstimulated cells from groups of three. The SEM is depicted by vertical lines.
Lymph nodes located below the lower jaw and the spleens were removed and put together for the analysis of the cellular immune responses. The cells were grown in RPMI 1640 supplemented by 10% fetal calf serum, 10 U/ml penicillin, 50 μg/ml streptomycin, 5×10^−5 M 2-mercaptoethanol and 1 mM L-glutamine (GIBCO BRL, Karlsruhe, Germany) and stored at 37° C. in a moist atmosphere with 5% CO2. The suspensions of lymph node and spleen cells were adjusted to 5×10^6 cells/ml in complete medium and put in a flat-bottomed 96-well microtiter plate (Nunc) with 100 μl/well, and the plates were incubated in the presence of various concentrations of soluble β-galactosidase for 4 days. Each concentration was tested in groups of three. During the last 18 hours of the incubation, 1 ρCi of [^3H]thymidine (Amersham International, Freiburg, Germany) was added to each well. The cells were then harvested on filter paper (Filtermat A; Wallac, Freiburg, Germany) using a cell harvester (Inotech, Wohlen, Switzerland), and the amount of incorporated [^3H]thymidine in the DNA of the proliferated cells was determined with the aid of a […] (Wallac 1450, Micro-Trilux). The results have been shown as the arithmetic mean of the uptake of [^3H]thymidine in cpm.

In test [4] the test system is BALB/c (H-2d) mice. Kind of test: β-Galactosidase-specific IgG isotypes in the serum of immunized mice (ELISA, Example 8). Particulars: average ± SEM, 5 mice per group.
Test [5] concerns BALB/c (H-2d) mice.
Setting [6] is: mice immunized i.p. with pure β-galactosidase.

Consider “β-gal: model antigen β-galactosidase administered pure, without adjuvant”, for which the “β-galactosidase-specific antibody endpoint titer in serum” value with BALB/c (H-2d) mice [1] is “about 1000”. Further, in the test on BALB/c (H-2d) mice [2], the “β-galactosidase-specific IgA in lung rinsings” value is reported as “no production of β-galactosidase-specific IgA in detectable quantity”. In the test with BALB/c (H-2d) mice [3] (i.n. immunization), the “proliferation of lymph node and spleen cells after in vitro restimulation with β-galactosidase” value was “no detectable cell proliferation”. For the same substance, the “proliferation of spleen cells after in vitro restimulation with β-galactosidase” value in the test with BALB/c (H-2d) mice [3] (i.p. immunization) is “significant proliferation response”. Also, in the test with BALB/c (H-2d) mice [4] (i.n.), the “β-Galactosidase-specific IgG1 in serum” value was determined as 22.6 ± 21.3 µg/mL, the “β-Galactosidase-specific IgG2a in serum” value is 0.7 ± 0.5 µg/mL, the “β-Galactosidase-specific IgG2b in serum” value was 0.3 ± 0.1 µg/mL and the “β-Galactosidase-specific IgG3 in serum” value was determined as 0.6 ± 0.0 µg/mL. Besides, in the test with BALB/c (H-2d) mice [4] (i.p.), the “β-Galactosidase-specific IgG1 in serum” value is 191.5 ± 132.1 µg/mL, the “β-Galactosidase-specific IgG2a in serum” value turned out to be 0.1 ± 0.0 µg/mL, the “β-Galactosidase-specific IgG2b in serum” value came to 0.5 ± 0.1 µg/mL and the “β-Galactosidase-specific IgG3 in serum” value worked out at 0.6 ± 0.0 µg/mL. Besides, in the test on BALB/c (H-2d) mice [5] (setting [6]), the “Th1 cytokines IL-2 and IFN-γ secreted by restimulated cells” value is “below the limit of detection”; the “secretion of IL-10 and IL-4 by restimulated cells” value is listed as “stimulated”.

On to CTB [reference compound], for which the “IL-10 content in supernatants of spleen cells stimulated in vitro” value in the test on BALB/c (H-2d) mice [5] (mice immunized i.n., β-gal restimulation) amounted to 0.6 ng/mL.
